Data published in ChEMBL document CHEMBL2331207, “A novel fluorogenic substrate for dinuclear Zn(II)-containing metallo-β-lactamases” (Bioorg Med Chem Lett, 2013).

Key:
[1] = Activity at metallo-beta-lactamase L1 (unknown origin) by fluorescence spectrum analysis
[2] = Activity at beta-lactamase type 2 (unknown origin) by fluorescence spectrum analysis
[3] = Activity at metallo-beta-lactamase L1 (unknown origin) by UV-vis spectrophotometry analysis
[4] = Activity at beta-lactamase type 2 (unknown origin) by UV-vis spectrophotometry analysis

Km [1]: 18 µM
kcat [1]: 5 s⁻¹
Km [2]: 11 µM
kcat [2]: 17 s⁻¹
Km [3]: 13 µM
kcat [3]: 5 s⁻¹
Km [4]: 18 µM
kcat [4]: 12 s⁻¹
SMILES: O=C(O)C1=C(CSc2ccc(NC(=O)c3cc4ccccc4oc3=O)cc2)CS[C@@H]2[C@H](NC(=O)c3cc4ccccc4oc3=O)C(=O)N12
